The data set in a line: Cleavage rate was reported. The format is ADME.
As for `O=c1ccn([C@@H]2O[C@H](CO)[C@@H](O)[C@H]2O)c(=O)[nH]1` [URIDINE], the K obs turned out to be 1.17 min⁻¹.
The same measure for `O=c1ccn(C2O[C@H](CO)[C@@H](O)[C@H]2O)cc1` (stereo partly drawn): 0.095 min⁻¹; for `O=c1ccccn1C1O[C@H](CO)[C@@H](O)[C@H]1O` (stereo partly drawn): 2.01 min⁻¹.
